Data as given in patent US20220096510A1, “METHOD AND PHARMACOLOGICAL COMPOSITION FOR THE PREVENTION OF RECURRENT INFECTIONS CAUSED BY CLOSTRIDIUM DIFFICILE” (UNIVERSIDAD ANDRÉS BELLO, priority 2018, published 2022).

What was measured:
[1] = system: C. difficile; conditions: 10 mM; cited from earlier work
[2] = system: C. difficile; conditions: cited from earlier work; for patients who presented late R-CDI: after 28 days
[3] = system: C. difficile strain R20291; test: Murine R-CDI model, intraperitoneal nystatin before and during CDI with oral vancomycin (Example 4)
[4] = system: T84 cells; test: Cell viability by the trypan blue and MTT methods, T84; assay type: cell-based; conditions: results not shown
[5] = system: Caco-2 cells; test: Cell viability by the trypan blue and MTT methods, Caco-2; assay type: cell-based; conditions: results not shown
[6] = system: C. difficile R20291 spores in Caco-2 cells; test: Internalized (taurocholate- and ethanol-resistant) spores in infected Caco-2 cells by the seeding method; assay type: cell-based; conditions: 30 μM nystatin before and during infection; then 0.1% taurocholate 1 h and 70% ethanol
[7] = system: C. difficile; conditions: used after vancomycin; cited from earlier work
[8] = system: C. difficile spores; assay type: in vivo, C57BL/6 mice; conditions: day 2; nystatin 8,500 IU/kg oral from day -1
[9] = system: C. difficile
Source text: Mice were infected and dosed with an oral solution comprising a combination of nystatin and vancomycin starting from day 3 after infection (time of manifestation of the clinical symptoms).
In this sense, we studied the effect of a formulation comprising nystatin together with vancomycin administered from day 3.

[10] = system: C. difficile toxin TcdB; conditions: patients with CDI; cited from earlier work

## N[C@@H](CS)C(=O)O [cysteine]
[1]
  toxin production in vitro: reduces toxin production

## CCc1c(Cl)c(O)c(Cl)c(O)c1C(=O)O[C@H]1[C@H](O)[C@H](OC)[C@H](OC/C2=C\C=C\C[C@H](O)/C(C)=C/[C@H](CC)[C@@H](O[C@@H]3OC(C)(C)[C@@H](OC(=O)C(C)C)[C@H](O)[C@@H]3O)/C(C)=C/C(C)=C/C[C@@H]([C@@H](C)O)OC2=O)O[C@@H]1C [fidaxomicin]
[2]
  patients who presented late R-CDI: 19.7%
  patients who presented early recurrences: 8%

## C[C@@H]1[C@H](O)[C@@H](C)/C=C/C=C/CC/C=C/C=C/C=C/C=C/C(O[C@H]2O[C@H](C)[C@@H](O)[C@H](N)[C@@H]2O)CC2O[C@](O)(CC(O)C(O)CCC(O)CC(O)CC(O)CC(=O)O[C@H]1C)CC(O)C2C(=O)O (stereo partly shown) [nystatin]
[3]; nystatin 12,000 IU/kg I.P. with vancomycin 50 mg/kg oral
  weight increase on day 11 in respect of day 0: 6%
[3]; nystatin 12,000 IU/kg I.P. with vancomycin 50 mg/kg oral, versus vancomycin alone
  weight variation versus control group: no significant weight variations
[4]
  cell viability: no differences
[5]
  cell viability: no differences
[6]
  amount of CFU counted (ethanol-resistant spores): significant decrease

## CO[C@H]1/C=C/O[C@@]2(C)Oc3c(C)c(O)c4c(O)c(c5c(nc6cc(C)ccn65)c4c3C2=O)NC(=O)/C(C)=C\C=C\[C@H](C)[C@H](O)[C@@H](C)[C@@H](O)[C@@H](C)[C@H](OC(C)=O)[C@@H]1C [rifaximin]
[7]
  efficiency rate: 64%

## CN[C@H](CC(C)C)C(=O)N[C@H]1C(=O)N[C@@H](CC(N)=O)C(=O)N[C@H]2C(=O)N[C@H]3C(=O)N[C@H](C(=O)N[C@H](C(=O)O)c4cc(O)cc(O)c4-c4cc3ccc4O)[C@H](O)c3ccc(c(Cl)c3)Oc3cc2cc(c3O[C@@H]2O[C@H](CO)[C@@H](O)[C@H](O)[C@H]2O[C@H]2C[C@](C)(N)[C@H](O)[C@H](C)O2)Oc2ccc(cc2Cl)[C@H]1O [vancomycin]
[3]; 5 days after finishing vancomycin 50 mg/kg, 7 days
  mice presenting recurrence: 100%
[2]
  patients who presented late R-CDI: 35.5%
  patients who presented early recurrences: 27%
[8]
  levels of spores in stools: 3.8 logarithmic units
[9]; after discontinuing treatment on day 8, nystatin 4,250 and 17,000 IU/kg
  weight loss on day 11, the day of recurrence: suffered a weight loss
[9]; vancomycin 50 mg/kg alone, 5 days from day 3
  mice presenting recurrence: 75%
[10]
  R-CDI rates: 27%
